Data from patent US11304974B2, “Nanosystems comprising silver and antibiotics and their use for the treatment of bacterial infections” (priority 2017, dated 2022).

Tests used:
K. pneumoniae BLEE+ = assay: Agar diffusion antibiogram (Example 2); assay type: cell-based, Klebsiella pneumoniae; settings: concentration 200 μg/ml
Method: (§1) From the stock cultures, which were maintained at −80±5° C., revitalization of the strains (TSB, TSA and blood agar cultures, incubation at 37° C., 24 h) and preparation of working cultures (maintenance at 5° C.±3° C.) was carried out.
(§2) The study of microbial activity of the products was performed by the agar diffusion method (antibiograms). Preliminary experiments were performed to adjust the concentration of each strain to obtain a homogeneous field, and the appropriate culture medium (in this case, Mueller Hinton agar) was selected. Whenever possible, large Petri plates (diameter of 135 mm) were used, but when the halo was too large, several plates of 90 mm diameter were used to test all the products. […] Addition of 1-2 ml of the corresponding dilution to sterile Petri plates (depending on size) and then pouring Mueller Hinton agar, tempered to 45° C. Allowing the agar to solidify at room temperature and then practicing wells in which the products will be placed to be tested. • Preparing the test substances in the appropriate concentration (suspension of 1 mg/ml in sterile water and serial dilutions). Placing 50 μl of the chosen concentration in each well (a previous study was done to see which concentration provided the most appropriate halos in each strain). […] Then the inhibition halos observed in each well were measured and gathered in Table 4 below.

[1] = tested on: K. pneumoniae ATCC 700603; assay: Agar diffusion antibiogram (Example 2); assay type: cell-based, Klebsiella pneumoniae; settings: concentration 200 μg/ml
Method: as §1, §2

Ps. aeruginosa MEXR [2] = assay: Agar diffusion antibiogram (Example 1); assay type: cell-based, Pseudomonas aeruginosa; settings: by order of Table 1 Ps. aeruginosa MEXR; concentration 50 μg/ml
Method: as §1
(§3) The study of microbial activity of the products was performed by the agar diffusion method (antibiograms). Preliminary experiments were performed to adjust the concentration of each strain to obtain a homogeneous field, and select the appropriate culture medium (in this case, Mueller Hinton agar). Whenever possible, large Petri plates (135 mm diameter) were used, but when the halo was too large, several plates of 90 mm diameter were used to test all the products. […] Addition of 1-2 ml of the corresponding dilution to sterile Petri plates (depending on size) and then pouring Mueller Hinton agar, tempered to 45° C. Allowing the agar to solidify at room temperature and then practicing wells in which the products to be tested will be placed. • Preparing the test substances in the appropriate concentration (suspension of 1 mg/ml in sterile water and serial dilutions). Placing 50 μl of the chosen concentration in each well (a previous study was done to determine which concentration provided the most appropriate halos in each strain). As a positive control, Penicillin G (at the same concentration) was used. • Incubation of the plates at 37±1° C. for 24 hours. Then the inhibition halos observed in each well were measured and gathered in Table 2 below.

Ps. aeruginosa OPRD [3] = assay: Agar diffusion antibiogram (Example 1); assay type: cell-based, Pseudomonas aeruginosa; settings: by order of Table 1 Ps. aeruginosa OPRD; concentration 50 μg/ml
Method: as §1, §3

Ps. aeruginosa VIM2 [4] = assay: Agar diffusion antibiogram (Example 1); assay type: cell-based, Pseudomonas aeruginosa; settings: by order of Table 1 Ps. aeruginosa VIM2; concentration 50 μg/ml
Method: as §1, §3

Ps. aeruginosa PAO1 [5] = assay: Agar diffusion antibiogram (Example 1); assay type: cell-based, Pseudomonas aeruginosa; settings: by order of Table 1 Ps. aeruginosa PAO1; concentration 50 μg/ml
Method: as §1, §3

Ps. aeruginosa MEXR [6] = assay: Agar diffusion antibiogram (Example 2); assay type: cell-based, Pseudomonas aeruginosa; settings: concentration 50 μg/ml
Method: as §1
(§4) The study of microbial activity of the products was performed by the agar diffusion method (antibiograms). Preliminary experiments were performed to adjust the concentration of each strain to obtain a homogeneous field, and the appropriate culture medium (in this case, Mueller Hinton agar) was selected. Whenever possible, large Petri plates (diameter of 135 mm) were used, but when the halo was too large, several plates of 90 mm diameter were used to test all the products. […] Addition of 1-2 ml of the corresponding dilution to sterile Petri plates (depending on size) and then pouring Mueller Hinton agar, tempered to 45° C. Allowing the agar to solidify at room temperature and then practicing wells in which the products will be placed to be tested. • Preparing the test substances in the appropriate concentration (suspension of 1 mg/ml in sterile water and serial dilutions). Placing 50 μl of the chosen concentration in each well (a previous study was done to see which concentration provided the most appropriate halos in each strain). As a positive control Penicillin G (at the same concentration) was used. • Incubation of the plates at […] for 24 hours. Then the inhibition halos observed in each well were measured and gathered in Table 4 below.

Ps. aeruginosa OPRD [7] = assay: Agar diffusion antibiogram (Example 2); assay type: cell-based, Pseudomonas aeruginosa; settings: concentration 50 μg/ml
Method: as §1, §4

Ps. aeruginosa DACB = assay: Agar diffusion antibiogram (Example 2); assay type: cell-based, Pseudomonas aeruginosa; settings: concentration 50 μg/ml
Method: as §1, §4

Ps. aeruginosa VIM2 [8] = assay: Agar diffusion antibiogram (Example 2); assay type: cell-based, Pseudomonas aeruginosa; settings: concentration 50 μg/ml
Method: as §1, §4

Ps. aeruginosa PAO1 [9] = assay: Agar diffusion antibiogram (Example 2); assay type: cell-based, Pseudomonas aeruginosa; settings: concentration 50 μg/ml
Method: as §1, §4

C. freundii H44 BLEE+ [10] = assay: Agar diffusion antibiogram (Example 1); assay type: cell-based, Citrobacter freundii; settings: by order of Table 1 C. freundii H44 BLEE+; concentration 50 μg/ml
Method: as §1
as §3, with “As a positive control, Penicillin G (at the same concentration) was used. • Incubation of the plates at 37±1° C. for 24 hours.” left out

K. pneumoniae (BLEE+) = assay: Agar diffusion antibiogram (Example 1); assay type: cell-based, Klebsiella pneumoniae; settings: by order of Table 1 K. pneumoniae BLEE+ clinical isolate; concentration 200 μg/ml
Method: as §1
as §3, with “As a positive control, Penicillin G (at the same concentration) was used. • Incubation of the plates at 37±1° C. for 24 hours.” left out

[11] = tested on: K. pneumoniae ATCC 700603; assay: Agar diffusion antibiogram (Example 1); assay type: cell-based, Klebsiella pneumoniae; settings: by order of Table 1 K. pneumoniae ATCC 700603; concentration 200 μg/ml
Method: as §1
as §3, with “As a positive control, Penicillin G (at the same concentration) was used. • Incubation of the plates at 37±1° C. for 24 hours.” left out

E. coli C93 BLEE+ [12] = assay: Agar diffusion antibiogram (Example 1); assay type: cell-based, Escherichia coli; settings: by order of Table 1 E. coli C93 BLEE+; concentration 50 μg/ml
Method: as §1, §3

E. coli W207 BLEE+ [13] = assay: Agar diffusion antibiogram (Example 1); assay type: cell-based, Escherichia coli; settings: by order of Table 1 E. coli W207 BLEE+; concentration 50 μg/ml
Method: as §1, §3

E. coli H24 BLEE+ [14] = assay: Agar diffusion antibiogram (Example 1); assay type: cell-based, Escherichia coli; settings: by order of Table 1 E. coli H24 BLEE+; concentration 50 μg/ml
Method: as §1, §3

E. coli ATCC 8739 = assay: Agar diffusion antibiogram (Example 1); assay type: cell-based, Escherichia coli; settings: concentration 50 μg/ml
Method: as §1, §3

E. coli not BLEE = assay: Agar diffusion antibiogram (Example 1); assay type: cell-based, Escherichia coli; settings: concentration 50 μg/ml
Method: as §1, §3

E. coli C93 BLEE+ [15] = assay: Agar diffusion antibiogram (Example 2); assay type: cell-based, Escherichia coli; settings: concentration 50 μg/ml
Method: as §1, §4

E. coli W207 BLEE+ [16] = assay: Agar diffusion antibiogram (Example 2); assay type: cell-based, Escherichia coli; settings: concentration 50 μg/ml
Method: as §1, §4

E. coli AC8 BLEE+ = assay: Agar diffusion antibiogram (Example 2); assay type: cell-based, Escherichia coli; settings: concentration 50 μg/ml
Method: as §1, §4

E. coli H24 BLEE+ [17] = assay: Agar diffusion antibiogram (Example 2); assay type: cell-based, Escherichia coli; settings: concentration 50 μg/ml
Method: as §1, §4

C. freundii H44 BLEE+ [18] = assay: Agar diffusion antibiogram (Example 2); assay type: cell-based, Citrobacter freundii; settings: concentration 50 μg/ml
Method: as §1, §2

For CC1(C)S[C@@H]2[C@H](NC(=O)Cc3ccccc3)C(=O)N2[C@H]1C(=O)O [PG, penicillin G], the Inhibition halos (K. pneumoniae BLEE+) was less than 1 mm, the Inhibition halos [1] was less than 1 mm and the Inhibition halos (Ps. aeruginosa MEXR [2]) was less than 1 mm. It also gave an Inhibition halos (Ps. aeruginosa OPRD [3]) of less than 1 mm, an Inhibition halos (Ps. aeruginosa VIM2 [4]) of less than 1 mm and an Inhibition halos (Ps. aeruginosa PAO1 [5]) of less than 1 mm. It also gave an Inhibition halos (Ps. aeruginosa MEXR [6]) of less than 1 mm, an Inhibition halos (Ps. aeruginosa OPRD [7]) of less than 1 mm and an Inhibition halos (Ps. aeruginosa DACB) of 9 mm. For the same molecule, the Inhibition halos (Ps. aeruginosa VIM2 [8]) was less than 1 mm, the Inhibition halos (Ps. aeruginosa PAO1 [9]) was less than 1 mm and the Inhibition halos (C. freundii H44 BLEE+ [10]) was less than 1 mm. It also gave an Inhibition halos (K. pneumoniae (BLEE+)) of less than 1 mm, an Inhibition halos [11] of less than 1 mm and an Inhibition halos (E. coli C93 BLEE+ [12]) of less than 1 mm. The Inhibition halos (E. coli W207 BLEE+ [13]) was less than 1 mm, the Inhibition halos (E. coli H24 BLEE+ [14]) was less than 1 mm and the Inhibition halos (E. coli ATCC 8739) was 21 mm. It also gave an Inhibition halos (E. coli not BLEE) of 21 mm, an Inhibition halos (E. coli C93 BLEE+ [15]) of less than 1 mm and an Inhibition halos (E. coli W207 BLEE+ [16]) of less than 1 mm. It also gave an Inhibition halos (E. coli AC8 BLEE+) of less than 1 mm, an Inhibition halos (E. coli H24 BLEE+ [17]) of less than 1 mm and an Inhibition halos (C. freundii H44 BLEE+ [18]) of less than 1 mm.
